The values that follow come from patent US20260286316A1, “METHOD OF PRODUCTION OF MODIFIED PHAGE AND METHOD OF TREATMENT USING SAME” (priority 2022, published 2026).

As usually defined, the MIC is the lowest concentration that inhibits growth of the organism. Read a high MIC as a need for much substance.

Each structure is given as a SMILES string. Values after ≈ are worked out from the molar mass of the structure shown.

One experiment deals with S. aureus ATCC51650. Nature of the experiment: Phage replication by titer. The experiment is classed as cell-based, Staphylococcus aureus. The settings on record: 48 hours incubation. The method, then: (§1) Phage titers were determined against S. aureus RN4220 (ATCC) using the double layer spot assay technique. Briefly, 100 μl of a S. aureus overnight culture was mixed with 4 mL of 0.4% TSA and poured onto a 1.5% TSA plate. […] After the plates were incubated in a humidified incubator at 37° C. overnight, plaques were counted, counts were averaged, and titers of the filtrate were calculated based on the dilution.
(§2) A 100 μl sample was taken from an S. aureus culture (10 ml in TSB) after 0 and 48 hours following treatment with clindamycin, phage or a phage clindamycin co-incubation. The sample was treated with 25 μl of chloroform, shaken for 30 seconds, centrifuged (3000 rpm, 5 minutes, room temperature) and the supernatant used to determine phage titers against the same isolate. Phage titers in plaque forming units [PFU]/mL were recorded initially and at 48 hours to assess for phage replication. To allow for phage resistant (phage insensitive) bacterial isolates to show plaques, clindamycin was added to the soft agar overlay.

In a further experiment the test system is S. aureus CI11. Nature of the experiment: Phage replication by titer. The experiment is classed as cell-based, Staphylococcus aureus. The following applies: 48 hours incubation. As to the method:
as §1, §2

In another experiment the test system is S. aureus CI8. Nature of the experiment: Phage replication by titer. It counts as cell-based, Staphylococcus aureus. The following applies: 48 hours incubation. The method, then: as §1, §2
The subject of the next experiment is S. aureus CI3. The experiment is described as follows: Rat rhinosinusitis model, efficacy arm (sinus mucosa CFU, biofilm biomass, histopathology). The experiment is classed as in vivo, Sprague Dawley rats. The settings on record: Sa87, ½ MIC clindamycin or ½ MIC azithromycin only. The source says:
Rat nasal tissues were fixed in 10% neutral buffered formalin. Tissue samples were then decalcified using 9.5% nitric acid in 1% ethylenediaminetetracetic acid (EDTA), processed to paraffin wax, and 6 μm sections cut and stained with H&E. The samples were examined by a veterinary pathologist blinded to the treatments given.
An established murine rhinosinusitis model was used with modifications (see YU C-j et al., Chinese Journal of Otorhinolaryngology-Skull Base Surgery 6, 2011; Zhang F et al., Am J Rhinol Allergy 27 (5): 361-366, 2013; and Jin M et al., Ear Arch Oto-Rhino-L 268 (6): 857-861, 2011). […] The sponges were placed at approximately 15 mm from the anterior nostril, located in the ostiomeatal complex. The rats were monitored for a nine-day period to allow for mucosal biofilms to form, and, on the tenth day, the sponges were removed. A two-day recovery was given to the rat before treatments begun. […] Treatments were administered intranasally twice a day for 14 days. Rats were monitored for weight and respiratory alterations (respiration rate; nasal discharge, hyperaemia or pruritus; and sneezing) during treatment, and, 14 days post-treatment initiation, the rats were humanely sacrificed. Their sinus mucosa was harvested for CFU counting, biofilm quantification, histopathology, and phage enumeration. […]
The quantification of biofilm biomass on sinus mucosa was determined using an established protocol (Singhal D et al., editors. Quantitative analysis of in vivo mucosal bacterial biofilms. International Forum of Allergy & Rhinology; 2012: Wiley Online Library (27). Briefly, the frontal sinus mucosa was harvested and placed into Dulbecco's Modified Eagle's Medium (Life Technologies, Carlsbad, CA, United States of America) on ice. One piece of mucosa from each frontal sinus was stained with a LIVE/DEAD® BacLight Bacterial Viability Kit (Life Technologies Australia). The stained mucosa was then examined at 20× magnification using a confocal laser scanning microscope (Zeiss LSM700, Carl Zeiss AG, Oberkochen, Germany). […]

Another experiment deals with S. aureus ATCC25923. The experiment is described as follows: Clindamycin MIC assay (Example 2). The experiment is classed as cell-based. The settings on record: Staphylococcus aureus; strain ATCC25923. As to the method: (§3) The MIC of clindamycin against the S. aureus strains was assessed using the broth microdilution technique as previously described (see Wiegand et al., 2008 supra). Results were interpreted as follows: Sensitive: ≤0.2 μg/mL; Intermediate: 0.4 μg/ml; Resistant: >0.6 μg/mL. The S. aureus strains sensitive to clindamycin were selected for further tests. The MIC was performed three times.

The subject of another experiment is S. aureus C285. The experiment is described as follows: Clindamycin MIC assay (Example 2). It counts as cell-based. The following applies: Staphylococcus aureus; strain C285. The method, then:
as §3

For a further experiment, the system named is S. aureus C319. Nature of the experiment: Clindamycin MIC assay (Example 2). It counts as cell-based. The following applies: Staphylococcus aureus; strain C319. The method, then:
as §3

For a further experiment, the system named is S. aureus C330. Nature of the experiment: Clindamycin MIC assay (Example 2). The experiment is classed as cell-based. The following applies: Staphylococcus aureus; strain C330. As to the method:
as §3

The subject of another experiment is S. aureus C43. The experiment is described as follows: Clindamycin MIC assay (Example 2). The experiment is classed as cell-based. The following applies: Staphylococcus aureus; strain C43. As to the method: as §3

Take `CCC[C@@H]1C[C@@H](C(=O)N[C@@H]([C@H]2O[C@H](SC)[C@H](O)[C@@H](O)[C@H]2O)[C@H](C)Cl)N(C)C1` [clindamycin]: the “plaques from supernatant after ½ MIC clindamycin only” value in the experiment on S. aureus ATCC51650, in the experiment on S. aureus CI11 and in the experiment on S. aureus CI8 was “produced no plaques” each time. Besides, the “histopathology of the maxilloturbinates, single agent” value in the experiment on S. aureus CI3 was “evidence of cilial denudation and surface epithelial erosion”. The MIC against S. aureus ATCC25923, in the experiment on S. aureus C285, in the experiment with S. aureus C319, in the experiment on S. aureus C330 and with S. aureus C43 was 0.2 µg/mL (≈ 0.471 µM) each time.
